{"source": "patent US12636368B2", "about": "“Ionizable lipids for nucleic acid delivery” (Global Life Sciences Solutions Canada ULC, priority 2019, dated 2026)", "key": {"[1]": {"experiment": "TNS assay, surface pKa of lipid nanoparticles", "assay_type": "physicochemical", "description": "In embodiments of the invention, the experimental pKa of formulated lipid nanoparticles comprising lipids in Table 1 is calculated using the 2-(p-toluidinyl)naphthalene-6-sulfonic acid (TNS) assay. The procedure for the TNS assay is described in Example 25.\nThe pKa of each cationic lipid was determined in lipid nanoparticles using an assay based on fluorescence of 6-(p-Toluidino)-2-naphthalenesulfonic acid sodium salt (TNS, Sigma Aldrich), which is a fluorescent probe for the conformational state of proteins5. Empty lipid nanoparticles comprising ionizable lipid in LM02 composition in distilled water at a concentration of 3.125 mM total lipid are formulated using NanoAssemblr® Spark™, and were then was characterized for LNP quality on the Zetasizer™ using a 30× dilution with 1×PBS in the low volume cuvette. Lipid nanoparticles were further diluted 4× using distilled water to 0.781 mM total lipid. TNS was prepared as a 25 μM stock solution in distilled water. Then 6.4 μL of diluted LNP samples of 0.781 mM total lipid were mixed with 10 μL of diluted TNS to a final volume of 250 μL with buffer containing 10 mM HEPES, 10 mM MES, 10 mM NH4OAc and 130 mM NaCl where the pH ranged from 3 to 9 in 0.5 pH increments.\nSamples were mixed thoroughly, and the fluorescence intensity was measured at room temperature in a BioTek™ Synergy™ H1 Hybrid Multi-Mode Monochromator™ Fluorescence Microplate Reader using excitation and emission wavelengths of 321 nm and 445 nm respectively. A sigmoidal best fit analysis was applied to the fluorescence data using GraphPad Prism™ software, and the pKa was measured as the pH at half-maximal fluorescence intensity."}, "[2]": {"test_system": "C57BL/6 mice", "experiment": "OVA mRNA LNP intramuscular immunization, anti OVA-IgG ELISA", "assay_type": "in vivo", "conditions": "i.m., days 1 and 10", "text": "LNP with the composition LM02b were used to encapsulate OVA antigen encoded CleanCap® OVA WT mRNA [TriLink L7610] or CleanCap® OVA 5-moU mRNA [TriLink L7210]. A lipid mixture of Ionizable lipid, DOPE, Cholesterol, and PEG-DMG2000, all in ethanol, was mixed with a low PH buffered solution of OVA mRNA at an N/P ratio of 8 using a NanoAssemblr® Ignite™ microfluidic mixer. The LNP were filtered using the Amicon™ ultra filtration technique and characterized for Size, PDI and Encapsulation Efficiency. Size and PDI were measured using dynamic light scattering techniques, and nucleic acid encapsulation efficiency was calculated from the Quant-iT RiboGreen RNA assay. […]\nAll animals were handled according to the Institutional Animal Care and Use Committee ethics protocols. […] Aliquots of serum samples were thawed and analyzed at appropriate dilutions for OVA expression and for IgG measurements using standard ELISA techniques.\nAnti OVA-IgG ELISA of serum samples: Sera from the immunized mice were collected at 2 weeks post second immunization. OVA-specific production of IgG in response to OVA-encoded mRNA in various LNPs were measured by ELISA as described supra. […] After 30 minutes of incubation, a stop solution of 2 N sulphuric acid was added and a plate reader was used to determine absorbance at 450 nm. […]"}, "[3]": {"experiment": "LNP size and PDI by dynamic light scattering", "assay_type": "physicochemical", "description": "After the lipid particles were made as described supra, particle size (hydrodynamic diameter of the particles) was determined by Dynamic Light Scattering (DLS) using a ZetaSizer™ Nano ZS™ (Malvern Instruments, UK). He/Ne laser tuned to 633 nm wavelength was used as the light source. Data were measured from the scattered intensity data conducted in backscattering detection mode (measurement angle=173). Measurements were an average of 10 runs of two cycles each per sample. Z-Average size was reported as the particle size, and is defined as the harmonic intensity averaged particle diameter.\n(§1) Physical characteristics of lipid nanoparticle (LNP) compositions comprising compounds according to Formula (I) and that were manufactured on the NanoAssemblr® Spark and Benchtop, are shown in Tables 6 and 7 below. Size, size variation of the LNP (PDI), encapsulation efficiency, and pKa are shown. The physical characteristics of these LNP are important from a standpoint of stability, biodistribution, and cell membrane crossing. There was good encapsulation in all the formulations, with polydispersity (PDI) under 0.3. Size and PDI were measured using dynamic light scattering techniques, and nucleic acid encapsulation efficiency was calculated from a modified Quant-iT RiboGreen RNA assay."}, "[4]": {"experiment": "Nucleic acid encapsulation efficiency by RiboGreen assay", "assay_type": "physicochemical", "description": "Messenger RNA or plasmid NAT was diluted using sodium acetate buffer to the required concentration. Lipid nucleic acid particle samples were then prepared by running both fluids using the NanoAssemblr® Spark instrument. […] The lipid nucleic acid particles made in the instrument were immediately diluted down with 48 μL Ca and Mg free 1×PBS at pH 7.4 in the aqueous output well. These nucleic acid lipid particles were immediately collected into microcentrifuge tubes containing 96 μL of Ca and Mg free 1×PBS at pH 7.4. Encapsulation efficiency was measured by a modified Ribogreen™ assay (Quanti-iT RiboGreen™ RNA assay kit, Fisher). Observed particle attributes were generally sized from 60-200 nm for mRNA, depending on lipid composition and method of production.\nas §1"}, "[5]": {"conditions": "Table 6, GFP-encoded LNPs, CT10, N/P 8"}, "[6]": {"conditions": "Table 7, EPO mRNA LNPs, LM02, N/P 6"}}, "note": "Like-named read-outs stand apart in the source and are kept apart here."}
{"smiles": "CCCCC/C=C\\C/C=C\\CCCCCCCC(=O)O[C@@H]1[C@@H](OC(=O)CCCCCCC/C=C\\C/C=C\\CCCCC)CO[C@@H]1COC(=O)C1CCN(C)CC1", "note": "(racemic) [PNI 325]", "values": [{"measurement": "pKa", "setting": "[1]; Table 1, formulated lipid nanoparticles, TNS assay, read-out: Exp. pKa", "result": 6.45}, {"measurement": "pKa", "setting": "[1]; Table 8, read-out: Exp.pKa", "result": 6.45}, {"measurement": "immune response to OVA antigen loaded LNPs", "setting": "[2]", "result": "effectively elicit an immune response similar to OVA antigen"}, {"measurement": "Diameter (Z. ave, nm)", "setting": "[3]; [5]", "result": 121.5, "unit": "nm"}, {"measurement": "Polydispersity Index (PDI)", "setting": "[3]; [5]", "result": 0.39}, {"measurement": "Diameter (Z. ave, nm)", "setting": "[3]; [6]", "result": 65.3, "unit": "nm"}, {"measurement": "Polydispersity Index (PDI)", "setting": "[3]; [6]", "result": 0.09}, {"measurement": "Encapsulation Efficiency (%)", "setting": "[4]; [5]", "result": 51.1, "unit": "%"}, {"measurement": "Encapsulation Efficiency (%)", "setting": "[4]; [6]", "result": 95.9, "unit": "%"}]}
